Values of other authors in patent publication US20160069160A1, “TREATMENT OF MICROBIAL-INFLUENCED CORROSION” (TRICAN WELL SERVICE LTD., priority 2014, published 2016).

System: microbes

Compound	efficacy at low pH (below pH 5)	concentration required to be effective at pH 7 relative to pH 9 (pH 7 vs pH 9)	effect of pH on microbial control
O=CCCCC=O [glutaraldehyde]	significantly reduced	4 to 6 times higher	
tetrakis(hydroxymethyl)phosphonium sulfate [THPS]			unaffected by pH
